The values below come from patent US10918645B2 (LIFEARC, priority 2016, dated 2021).

One test concerns the target JAK2 (Homo sapiens (Human), UniProt O60674). Put plainly: LANCE Kinase Assay (JAK2_IC50 selectivity assay). In kind it is biochemical. The text has this: In LANCE® Kinase Assay (JAK2_IC50 selectivity assay): JAK2 (Invitrogen, Cat. No PV4288), ATP (Sigma, Cat. No. A7699-1G), DMSO (Sigma, Cat. No. D2650), DTT (Sigma, Cat. No. 43815), LANCE Ultra ULight™-JAK-1 peptide (Perkin Elmer, Cat. No. TRF0121), LANCE Eu-W1024 Anti-phosphotyrosine (PT66) (Perkin Elmer, Cat. No. AD0069), LANCE™ Detection Buffer (Perkin Elmer, Cat. No. CR97-100), Tofacitinib (PharmaBlock Sciences(Nanjing), Inc, Cat. No. PBN2011586-01); Equipments: Envision (Perkin Elmer), Bravo (Agilent); Consumables: 384 well Intermediate plate (Greiner, Cat. No. 781280), 384 well assay plate (Perkin Elmer, Cat. No. 6007299),
The assay involves two steps, the enzymatic step and the detection step with HTRF reagents. Step 1: During the enzymatic step the substrate-biotin is incubated with the kinase of interest. ATP is added to start the reaction. Step 2: The detection reagent catches the phosphorylated substrate and the resulting TR-FRET is proportional to the phosphorylation level.
Compound Preparation: Dissolve the test compounds into 30 mM DMSO solution and put them in nitrogen hood at room temperature for long term storage; Dilute the 30 mM compound in DMSO with 3-fold factor, total 11 concentrations; Aspirate 1 μl compound and then dilute them in 25 folds with kinase buffer. Mix well and balance 30 minutes at room temperature.
Kinase Reaction: Transfer 2.5 μl compounds in kinase buffer (4×) into assay plate by Agilent Bravo. Spin the plate; Transfer 5 μl enzyme mixture into the assay plate by using Eppendorf electronic multi-channel pipette. Spin the plate; Incubate the assay plate for 20 minutes at room temperature (23° C.); Add 2.5 μl kinase buffer with ATP into the assay plate by using Multidrop. Spin and seal the plate; Incubate the assay plate for 90 minutes at room temperature (23° C.).
Stop Reaction: Transfer 10 μl detection reagent (2 nM LANCE Eu-W1024 Anti-phosphotyrosine) into the assay plate by using Eppendorf electronic multi-channel pipette. Spin and seal the plate; Incubate the assay plate at room temperature (23° C.) for 60 minutes.
Detection and Read: The excitation wavelength is 340 nm, the primary emission wavelength is 615 nm and the secondary emission wavelength is 665 nm (for Cryptate and Ulight, respectively). Read the plate with EnVision to get the readout of both wavelengths; Calculate the ratio of 665 nm/615 nm.
(§1) IC50 estimates were obtained using the software XLfit (IDBS Inc.).

A further test concerns the target LRRK2 G2019S (Homo sapiens (Human), UniProt Q5S007, G2019S). The test is described as follows: Adapta Kinase Assay (LRRK2_IC50 assay). Type of test: biochemical. The note with it: inhibition of LRRK2 G2019S. The method, then: In Adapta™ Kinase Assay (LRRK2_IC50 assay): the Kinase Reaction Buffer contained 5× Kinase Buffer S (Life Technologies, PV5213) and 2 mM DTT (Life Technologies, P2325).
The Adapta® universal kinase assay is a homogenous, fluorescent based immunoassay for the detection of ADP. In contrast to ATP depletion assays, the Adapta® assay is extremely sensitive to ADP formation such that a majority of the signal change occurs in the first 10-20% conversion of ATP to ADP. This makes the Adapta® universal kinase assay ideally suited for use with low activity kinases.
Prepare a 1× solution of kinase reaction buffer from the 5× Kinase Buffer S stock (listed above) by adding 2 ml of 5× stock to 8 ml of H2O to make 10 ml of 1× kinase reaction buffer. To this, add 20 μl of 1 M DTT.
Kinase reactions are performed in a 10 μl volume in low-volume 384-well plates. […] Other non—treated assay plates, while not tested, may also be suitable. The concentration of substrate in the assay is 100 μM, and the 1× kinase reaction buffer consists of 50 mM Tris-HCl pH8.5, 10 mM MgCl2, 1 mM EGTA, 0.01% Brij-35, and 2 mM DTT, plus any additional additives that may be required for a specific kinase. […] The plate is allowed to equilibrate at room temperature for at least 30 minutes before being read on a plate reader configured for Adapta™ TR-FRET.
The data presented in this document were generated using a BMG LABTECH PHERAstar plate reader using the appropriate filters and instrument settings for Adapta™. The Test Compounds are screened in 1% DMSO (final) in the well. For 8 point titrations, 5-fold serial dilutions are conducted from the starting concentration.
as §1

Chain of JAK2 (O60674 whole entry): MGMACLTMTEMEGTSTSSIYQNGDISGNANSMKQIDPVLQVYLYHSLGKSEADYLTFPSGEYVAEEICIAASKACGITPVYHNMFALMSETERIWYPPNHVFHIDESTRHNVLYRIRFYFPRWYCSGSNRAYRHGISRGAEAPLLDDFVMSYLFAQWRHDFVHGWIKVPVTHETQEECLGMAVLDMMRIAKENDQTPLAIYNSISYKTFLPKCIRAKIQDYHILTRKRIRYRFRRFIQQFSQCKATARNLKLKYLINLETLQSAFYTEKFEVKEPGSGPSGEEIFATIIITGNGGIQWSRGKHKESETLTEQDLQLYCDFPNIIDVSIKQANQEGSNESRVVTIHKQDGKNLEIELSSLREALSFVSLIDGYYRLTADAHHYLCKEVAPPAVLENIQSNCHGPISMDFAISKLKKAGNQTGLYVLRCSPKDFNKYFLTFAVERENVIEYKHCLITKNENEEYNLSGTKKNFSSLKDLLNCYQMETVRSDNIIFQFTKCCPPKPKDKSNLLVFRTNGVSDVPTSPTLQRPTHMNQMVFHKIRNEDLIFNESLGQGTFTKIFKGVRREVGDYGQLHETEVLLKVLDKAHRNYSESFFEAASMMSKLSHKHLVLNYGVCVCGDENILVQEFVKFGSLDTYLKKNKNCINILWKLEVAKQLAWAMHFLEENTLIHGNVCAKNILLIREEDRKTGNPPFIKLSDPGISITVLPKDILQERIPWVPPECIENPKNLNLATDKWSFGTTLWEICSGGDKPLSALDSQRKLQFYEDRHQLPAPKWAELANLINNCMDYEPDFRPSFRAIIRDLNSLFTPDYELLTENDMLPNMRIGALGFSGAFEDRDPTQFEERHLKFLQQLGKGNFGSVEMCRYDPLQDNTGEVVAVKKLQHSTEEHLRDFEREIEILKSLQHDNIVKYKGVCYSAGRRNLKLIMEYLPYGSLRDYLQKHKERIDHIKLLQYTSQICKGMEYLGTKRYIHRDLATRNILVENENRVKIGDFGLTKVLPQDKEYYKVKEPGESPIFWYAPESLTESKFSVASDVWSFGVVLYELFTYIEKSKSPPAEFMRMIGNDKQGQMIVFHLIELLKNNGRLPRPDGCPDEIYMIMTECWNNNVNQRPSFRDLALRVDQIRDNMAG
Chain of LRRK2 G2019S (Q5S007 970-2527 G2019S): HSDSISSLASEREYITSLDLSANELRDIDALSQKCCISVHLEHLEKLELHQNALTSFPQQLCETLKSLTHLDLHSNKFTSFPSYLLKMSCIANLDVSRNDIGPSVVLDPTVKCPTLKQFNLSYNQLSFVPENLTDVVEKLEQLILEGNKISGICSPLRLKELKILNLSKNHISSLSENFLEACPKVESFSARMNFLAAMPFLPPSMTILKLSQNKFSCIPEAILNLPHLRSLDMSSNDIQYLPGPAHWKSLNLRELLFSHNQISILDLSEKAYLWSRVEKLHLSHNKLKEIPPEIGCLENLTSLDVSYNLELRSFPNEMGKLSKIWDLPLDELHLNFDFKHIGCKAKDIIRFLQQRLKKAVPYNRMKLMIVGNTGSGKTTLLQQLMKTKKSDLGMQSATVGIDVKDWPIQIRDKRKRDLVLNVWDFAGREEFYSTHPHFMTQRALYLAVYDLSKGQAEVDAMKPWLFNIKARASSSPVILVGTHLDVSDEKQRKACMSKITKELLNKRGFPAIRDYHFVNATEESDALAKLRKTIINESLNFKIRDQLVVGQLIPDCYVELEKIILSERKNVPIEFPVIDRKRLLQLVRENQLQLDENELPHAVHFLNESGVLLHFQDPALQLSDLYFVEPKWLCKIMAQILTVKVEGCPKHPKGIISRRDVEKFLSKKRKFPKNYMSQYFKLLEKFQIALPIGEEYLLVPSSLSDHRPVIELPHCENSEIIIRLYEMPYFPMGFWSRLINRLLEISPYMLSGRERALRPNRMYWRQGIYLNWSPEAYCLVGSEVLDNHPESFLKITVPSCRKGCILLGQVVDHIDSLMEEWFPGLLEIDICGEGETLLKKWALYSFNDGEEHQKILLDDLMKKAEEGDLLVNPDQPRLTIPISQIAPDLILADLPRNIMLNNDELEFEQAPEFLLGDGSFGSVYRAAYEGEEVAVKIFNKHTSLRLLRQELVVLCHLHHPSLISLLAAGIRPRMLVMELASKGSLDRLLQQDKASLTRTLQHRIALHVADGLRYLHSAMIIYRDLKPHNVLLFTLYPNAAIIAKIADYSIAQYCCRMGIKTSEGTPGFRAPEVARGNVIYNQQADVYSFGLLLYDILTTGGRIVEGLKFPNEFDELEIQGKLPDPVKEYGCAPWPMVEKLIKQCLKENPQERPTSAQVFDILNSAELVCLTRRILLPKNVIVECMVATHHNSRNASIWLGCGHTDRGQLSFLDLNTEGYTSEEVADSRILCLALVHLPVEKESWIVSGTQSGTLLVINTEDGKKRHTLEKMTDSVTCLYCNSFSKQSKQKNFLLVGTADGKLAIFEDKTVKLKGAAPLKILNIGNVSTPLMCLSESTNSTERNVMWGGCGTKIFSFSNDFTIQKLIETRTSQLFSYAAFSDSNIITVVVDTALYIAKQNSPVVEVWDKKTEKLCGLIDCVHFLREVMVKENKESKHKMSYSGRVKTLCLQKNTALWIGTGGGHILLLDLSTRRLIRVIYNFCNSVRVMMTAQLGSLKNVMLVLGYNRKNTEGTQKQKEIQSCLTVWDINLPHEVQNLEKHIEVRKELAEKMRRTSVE

Consider “4-(tetrahydro-2H-pyran-4-yl)-8-(trifluoromethyl)-5,11-dihydro-4H-3,4,7,10,11-pentaazadibenzo[cd,h]azulene [Example 89]”, for which the IC50 against JAK2 is 23 µM; against LRRK2 G2019S, 0.049 µM.

Consider “4-cyclobutyl-5,11-dihydro-4H-3,4,10,11-tetraazadibenzo[cd,h]azulene [Example 51]”, for which the results for the 50% inhibitory concentration (IC50) against JAK2 and on LRRK2 G2019S were 0.58 µM and 0.039 µM, respectively.

As for “4-cyclopropyl-5,11-dihydro-4H-3,4,10,11-tetraazadibenzo[cd,h]azulene [Example 47]”, the results for the IC50 on JAK2 and against LRRK2 G2019S were 2.2 µM and 0.054 µM, respectively.

For “4-ethyl-5,11-dihydro-4H-3,4,10,11-tetraazadibenzo[cd,h]azulene [Example 46]”, the IC50 against JAK2 was determined as 1.9 µM; against LRRK2 G2019S, 0.049 µM.

On to “4-isopropyl-5,11-dihydro-4H-3,4,10,11-tetraazadibenzo[cd,h]azulene [Example 48]”, for which the IC50 at JAK2 is 0.55 µM; on LRRK2 G2019S, 0.068 µM.

With `CC(C)N1CCCc2n[nH]c3ccnc1c23` [Example 19, 6-isopropyl-6,7,8,9-tetrahydro-2H-1,2,5,6-tetraazabenzo[cd]azulene], the figures for the IC50 on JAK2 and on LRRK2 G2019S were 3.1 µM and 0.23 µM, respectively.

With `CN1Cc2ccccc2-c2n[nH]c3ccnc1c23` [Example 45, 4-methyl-5,11-dihydro-4H-3,4,10,11-tetraazadibenzo[cd,h]azulene], the results for the IC50 on JAK2 and against LRRK2 G2019S were 2.1 µM and 0.071 µM, respectively.

`CC(C)N1CCC(N2Cc3ccccc3-c3n[nH]c4ccnc2c34)CC1` [Example 56]: the half-maximal inhibitory concentration (IC50) amounted to 4.8 µM on JAK2 and 0.058 µM against LRRK2 G2019S.

Regarding `CCn1cc2c(n1)CN(C1CCOCC1)c1nccc3[nH]nc-2c13` [Example 72, 2-ethyl-9-(tetrahydro-2H-pyran-4-yl)-2,5,9,10-tetrahydro-1,2,4,5,8,9-hexaazabenzo[cd]cyclopenta[h]azulene], the IC50 is 0.66 µM on JAK2 and 0.015 µM on LRRK2 G2019S.

Turning to `CC(C)n1cc2c(n1)CN(C1CCOCC1)c1nccc3[nH]nc-2c13` [Example 74, 2-isopropyl-9-(tetrahydro-2H-pyran-4-yl)-2,5,9,10-tetrahydro-1,2,4,5,8,9-hexaazabenzo[cd]cyclopenta[h]azulene], the IC50 on JAK2 came out at 2.4 µM; against LRRK2 G2019S, 0.05 µM.

As for `CC(C)n1cc2c(n1)CN(C1CCN(C)CC1)c1nccc3[nH]nc-2c13` [Example 81, 2-isopropyl-9-(1-methylpiperidin-4-yl)-2,5,9,10-tetrahydro-1,2,4,5,8,9-hexaazabenzo[cd]cyclopenta[h]azulene], the IC50 on JAK2 is 4.6 µM; on LRRK2 G2019S, 0.04 µM.

With `CC(C)N1CCC(N2Cc3nn(C)cc3-c3n[nH]c4ccnc2c34)CC1` [Example 82, 9-(1-isopropylpiperidin-4-yl)-2-methyl-2,5,9,10-tetrahydro-1,2,4,5,8,9-hexaazabenzo[cd]cyclopenta[h]azulene], at LRRK2 G2019S, the half-inhibitory concentration (IC50) was 0.039 µM.

As for `CCn1cc2c(n1)CN(C1CCN(C(C)C)CC1)c1nccc3[nH]nc-2c13` [Example 86, 2-ethyl-9-(1-isopropylpiperidin-4-yl)-2,5,9,10-tetrahydro-1,2,4,5,8,9-hexaazabenzo[cd]cyclopenta[h]azulene], the 50% inhibitory concentration (IC50) on JAK2 came to 3 µM; on LRRK2 G2019S, 0.029 µM.

Turning to `CC(C)N1CCC(N2Cc3nn(C(C)C)cc3-c3n[nH]c4ccnc2c34)CC1` [Example 88, 2-isopropyl-9-(1-isopropylpiperidin-4-yl)-2,5,9,10-tetrahydro-1,2,4,5,8,9-hexaazabenzo[cd]cyclopenta[h]azulene], the figures for the half-maximal inhibitory concentration (IC50) at JAK2 and against LRRK2 G2019S were 5.4 µM and 0.031 µM, respectively.

`CCN1CCN(C2CCOCC2)c2nccc3[nH]nc1c23` [Example 94, 9-ethyl-6-(tetrahydro-2H-pyran-4-yl)-6,7,8,9-tetrahydro-2H-1,2,5,6,9-pentaazabenzo[cd]azulene] showed an IC50 against LRRK2 G2019S of 0.82 µM.
